Where “and” joins values, the source holds several entries; their conditions need not be identical. Equal entries are not always repeated.
Experiments:
[1] = test system: TAA-induced cholestatic liver injury; assay: TAA-induced mouse cholestatic liver injury (Example 2); assay type: in vivo, C57BL/6 mice
Description: A total of 18 male C57BL/6 mice were divided into three groups: blank group (n=6); model group (n=6); treatment group (n=6).
Celastrol was dissolved in a solvent to obtain a solution of celastrol at a concentration of 2 mg/mL, wherein the solvent consisted of 1% DMSO, 2% Tween, and 97% water (v:v:v). For intragastrical administration, the dosage of celastrol was 10 mg/kg·d. TAA was dissolved in 0.9% NaCl solution to prepare a NaCl solution of TAA at a concentration of […], and the dosage of TAA for intraperitoneal administration was 300 mg/kg.
The treatment group was administered intragastrically with the celastrol solution at a dosage of 10 mg/kg·d for 4 consecutive days. At the same time, the blank group and the model group were intragastrically administered with the same dosage of a solvent, wherein the solvent consisted of 1% DMSO, 2% Tween 80 and 97% water (v:v:v), and the solvent was administrated for 4 consecutive days.
On the 4th day, TAA model was established. 1 Hour after administration with the solvent or celastrol solution, the mice of the treatment group and the model group were respectively intraperitoneally injected with the NaCl solution of TAA at a dosage of 300 mg/kg to induce cholestatic liver injury. 24 Hours after treatment with TAA, the mice were sacrificed by CO2 anesthesia, and plasma samples and liver samples were collected. The eyeballs of the mice were taken for blood collection. The plasma samples were placed on ice for 1-2 hours, centrifuged at 4000 g for 5 minutes at 4° C., and the supernatant plasma samples were taken to determine the plasma biochemical indicators, the levels of ALT, AST and ALP.
At the same time, plasma samples were prepared: 10 μL of plasma sample was taken, mixed with 190 μL of 67% acetonitrile (containing 5 μM internal standard chlorpropamide), centrifuged at 18000 g for 20 minutes at 4° C., and the supernatant was taken for sample injection.
Liver samples were prepared: 100 mg liver samples were mixed well with 1 mL of 50% acetonitrile (containing 5 μM internal standard chlorpropamide), shaken for 20 minutes at room temperature, and then centrifuged at 18000 g for 20 minutes at 4° C. Thereafter, 200 μL of the supernatant was taken and added with 200 μl of pure acetonitrile, vortexed for 1 minute, centrifuged at 18000 g for 20 minutes at 4° C., and the supernatant was taken for sample injection. The liquid chromatography conditions were as follows: the injection volume was 5 μL; the temperature of column was 45° C.; the flow rate of mobile phase was 0.3 mL/min; the gradient elution was that acetonitrile concentration changed from 2% to 98% during 16 minutes of operation, wherein the mobile phase (water/acetonitrile solution) contained 0.01% formic acid. The elution procedure was as follows: during 0-12th minute, the acetonitrile concentration changed from 2% to 98% at a constant rate; 12-14th minute, the acetonitrile concentration was maintained at 98%; 14-14.1th minute, the acetonitrile concentration changed from 98% to 2%; 14.1-16th minute, the acetonitrile concentration was maintained at 2%. Mass spectrometry conditions were as follows: the temperature of dry gas was 350° C., the pressure of nebulizer was 35 psi, and the voltage of capillary was 3.5 kV.
Part of the collected mouse liver tissue was fixed overnight in formalin and tissue sections were stained with hematoxylin and eosin (H&E).

[2] = test system: TAA-induced cholestatic liver injury in FXR knockout mice; assay: Effect of FXR on celastrol activity in TAA model (Example 6); assay type: in vivo, FXR knockout mice (C57BL/6J as background)
Description: The same experimental method of Example 2 was used, wherein the experimental animals were FXR knockout mice (C57BL/6J as background), and the FXR knockout mice were presented by Frank J. Gonzalez, a researcher of the Cancer Institute of National Institutes of Health, USA.

[3] = celastrol 10 mg/kg·d intragastric 4 days, TAA 300 mg/kg i.p. on day 4, 24 h after TAA, n=6
[4] = celastrol 10 mg/kg·d intragastric 4 days, TAA 300 mg/kg i.p., 24 h after TAA, n=6

## CC1=C(O)C(=O)C=C2C1=CC=C1[C@@]2(C)CC[C@@]2(C)[C@@H]3C[C@](C)(C(=O)O)CC[C@]3(C)CC[C@]12C [celastrol, Celastrol]
[1]; [3]
  Liver weight of mouse when sacrificed: 1.55 g and 1.55 ± 0.21 g
  Liver weight/body weight: 6.48% and 6.48 ± 0.93%
[1]; [4]
  ALP in mouse plasma: 50.1 ± 7.8 U/l
  ALT in mouse plasma: 333.3 ± 211.3 U/l
  AST in mouse plasma: 920.3 ± 433.4 U/l
[1]; celastrol 10 mg/kg·d intragastric, TAA model, FIG. 2C
  H&E staining: area of liver necrosis in liver tissue: significantly reduced
[1]; ω-MCA, DCA, TβMCA/TαMCA, TCA, THDCA/TUDCA, TCDCA, TDCA, celastrol 10 mg/kg·d, FIG. 2D
  Levels of bile acids in plasma vs TAA model group: significantly lower
[1]; ω-MCA, β-MCA, CA, DCA, TβMCA/TαMCA, TCA, GCA, TLCA, celastrol 10 mg/kg·d, FIG. 2E
  Levels of bile acids in liver vs TAA model group: significantly lower
[2]; co-MCA, DCA, TCA, THDCA/TUDCA, TCDCA, method of Example 2, FIG. 6E
  Levels of bile acids in plasma vs model group: no significant decrease
[2]; method of Example 2, TAA model, FIG. 6C
  H&E staining of liver tissue: a severe necrosis of liver cells also occurred
[2]; method of Example 2, TAA model, FIG. 6D
  AST level in plasma vs model group: no significant decrease

Reference: patent US11607417B2, “Uses of celastrol in preventing and/or treating cholestatic liver disease and liver fibrosis” (KUNMING INSTITUTE OF BOTANY, THE CHINESE ACADEMY OF SCIENCES, priority 2017, dated 2023)
